Assay results taken from the supplement of paper PMC11061612.

Columns and labels:
[1] = test system: KARPAS-299 (T-Cell Non-Hodgkin's Lymphoma); assay: combination Emax (second highest fraction inhibited in the dose matrix, 72 h); higher = more inhibition; extreme values may be limits of the assay
Method in brief: (§1)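 After 24 hours at 37°C and 5% CO2 in 1536-well plates, cells in DMEM/F12 or RPMI plus 10% FBS received two-drug dose matrices for 72 hours. Viability came from CellTiter-Glo 2.0 luminescence and was scaled as inhibition, anchored at 0 by vehicle wells and at 1 by blank wells. Combination Emax is taken as the second-highest inhibition in the matrix, and Bliss excess as the observed combination effect less EA + EB − EA·EB, with EA and EB the single-agent effects.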

[2] = test system: KMOE-2 (Acute Myeloid Leukemia); assay: as above
Method in brief: as §1

UACC-62 (Melanoma) = assay: as above
Method in brief: as §1

[3] = test system: SU8686 (Pancreatic Carcinoma); assay: as above
Method in brief: as §1

ACHN (Kidney Carcinoma) = assay: as above
Method in brief: as §1

[4] = test system: NCI-H1915 (Non-Small Cell Lung Carcinoma); assay: as above
Method in brief: as §1

[5] = test system: OVCAR-4 (Ovarian Carcinoma); assay: as above
Method in brief: as §1

[6] = test system: RF-48 (B-Cell Non-Hodgkin's Lymphoma); assay: as above
Method in brief: as §1

[7] = test system: C-4-I (Cervical Carcinoma); assay: as above
Method in brief: as §1

[8] = test system: SCC-15 (Oral Cavity Carcinoma); assay: as above
Method in brief: as §1

TK10 (Kidney Carcinoma) = assay: as above
Method in brief: as §1

[9] = test system: BT-549 (Breast Carcinoma); assay: as above
Method in brief: as §1

[10] = test system: EFM-19 (Breast Carcinoma); assay: as above
Method in brief: as §1

[11] = test system: TE-1 (Esophageal Squamous Cell Carcinoma); assay: as above
Method in brief: as §1

[12] = test system: VA-ES-BJ (Other Solid Carcinomas); assay: as above
Method in brief: as §1

[13] = test system: KYSE-450 (Esophageal Squamous Cell Carcinoma); assay: as above
Method in brief: as §1

[14] = test system: Ca9-22 (Head and Neck Carcinoma); assay: as above
Method in brief: as §1

[15] = test system: AMO-1 (Plasma Cell Myeloma); assay: as above
Method in brief: as §1

[16] = test system: NEC8 (Other Solid Carcinomas); assay: as above
Method in brief: as §1

EW-24 (Ewing's Sarcoma) = assay: Bliss excess, mean over the matrix (fraction); higher = more synergy;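 note: after 72 h of two-drug dosing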
Method in brief: as §1

Row | SMILES | combination Emax [1] | combination Emax [2] | combination Emax (UACC-62 (Melanoma)) | combination Emax [3] | combination Emax (ACHN (Kidney Carcinoma)) | combination Emax [4] | combination Emax [5] | combination Emax [6] | combination Emax [7] | combination Emax [8] | combination Emax (TK10 (Kidney Carcinoma)) | combination Emax [9] | combination Emax [10] | combination Emax [11] | combination Emax [12] | combination Emax [13] | combination Emax [14] | combination Emax [15] | combination Emax [16] | Bliss excess (EW-24 (Ewing's Sarcoma))
1 | Cn1cnc2c(F)c(Nc3ccc(Br)cc3Cl)c(C(=O)NOCCO)cc21 [Selumetinib] + C=CCn1c(=O)c2cnc(Nc3ccc(N4CCN(C)CC4)cc3)nc2n1-c1cccc(C(C)(C)O)n1 [AZD1775] (first compound max 10 µM, partner max 1 µM) | 0.851 | 1 | 0.827 | 0.126 | 0.863 | 0.846 | 0.546 | 0.489 | 0.929 | 0.3 | 0.478 | 0.715 | 0.321 | 0.638 | 0.468 | 0.499 | 0.55 | 0.917 | 0.628 | -0.0025
2 | CCN(CCO)CCCOc1ccc2c(Nc3cc(CC(=O)Nc4cccc(F)c4)[nH]n3)ncnc2c1 [AZD2811] + C=CCn1c(=O)c2cnc(Nc3ccc(N4CCN(C)CC4)cc3)nc2n1-c1cccc(C(C)(C)O)n1 [AZD1775] (first compound max 1 µM, partner max 1 µM) | 0.911 | 0.89 | 0.391 | 0.177 | 0.999 | 0.522 | 0.472 | 0.522 | 0.771 | 0.296 | 0.33 | 0.62 | 0.467 | 0.601 | 0.356 | 0.61 | 0.771 | 0.718 | 0.329 | 0.0045
3 | CS(=O)(=O)CCNCc1ccc(-c2ccc3ncnc(Nc4ccc(OCc5cccc(F)c5)c(Cl)c4)c3c2)o1 [Lapatinib] + C[C@@H](Oc1cc(-c2cnn(C3CCNCC3)c2)cnc1N)c1c(Cl)ccc(F)c1Cl [Crizotinib] (first compound max 10 µM, 7x7, partner max 10 µM) | 0.978 | 0.911 | 0.66 | 0.16 | 0.781 | 0.65 | 0.727 | 0.477 | 0.943 | 0.944 | 0.656 | 0.609 | 0.554 | 0.919 | 0.756 | 0.869 | 0.987 | 0.958 | 0.862 | -0.0105
4 | CC(=O)c1c(C)c2cnc(Nc3ccc(N4CCNCC4)cn3)nc2n(C2CCCC2)c1=O [Palbociclib] + Cn1cnc2c(F)c(Nc3ccc(Br)cc3Cl)c(C(=O)NOCCO)cc21 [Selumetinib] (first compound max 10 µM, 7x7, partner max 10 µM) | 0.594 | 1 | 0.764 | 0.173 | 0.606 | 0.782 | 0.286 | 0.277 | 0.349 | 0.232 | 0.427 | 0.226 | 0.162 | 0.383 | 0.158 | 0.403 | 0.458 | 0.557 | 0.0587 | -0.0617
5 | COc1cccc(OCCCN)c1-c1cc(Nc2cnc(C#N)cn2)n[nH]1 [Prexasertib] + O=C(c1cc(Cc2n[nH]c(=O)c3ccccc23)ccc1F)N1CCN(C(=O)C2CC2)CC1 [Olaparib] (first compound max 1 µM, 7x7, partner max 10 µM) | 1 | 0.974 | 0.743 | 0.527 | 0.906 | 0.665 | 0.743 | 0.726 | 0.929 | 0.482 | 0.625 | 0.654 | 0.354 | 0.621 | 0.837 | 0.744 | 0.991 | 0.982 | 0.968 | -0.0292
6 | COc1cccc(OCCCN)c1-c1cc(Nc2cnc(C#N)cn2)n[nH]1 [Prexasertib] + C[C@@H]1COCCN1C2=NC(=NC(=C2)C3(CC3)[S@](=N)(=O)C)C4=C5C=CNC5=NC=C4 [AZD6738] (first compound max 1 µM, 7x7, partner max 10 µM) | 0.985 | 0.948 | 0.697 | 0.531 | 0.928 | 0.612 | 0.832 | 0.71 | 0.965 | 0.663 | 0.686 | 0.698 | 0.26 | 0.641 | 0.782 | 0.651 | 0.991 | 0.965 | 0.983 | -0.0522
7 | CN(C)CCCOc1ccc(-c2ccc3ncc4c(c3c2)n(C2CCOCC2)c(=O)n4C)cn1 [AZD0156] + C[C@@H]1COCCN1C2=NC(=NC(=C2)C3(CC3)[S@](=N)(=O)C)C4=C5C=CNC5=NC=C4 [AZD6738] (first compound max 1 µM, 7x7, partner max 10 µM) | 0.953 | 0.59 | 0.555 | 0.365 | 0.883 | 0.522 | 0.697 | 0.588 | 0.872 | 0.446 | 0.695 | 0.46 | 0.345 | 0.462 | 0.699 | 0.649 | 0.925 | 0.908 | 0.877 | -0.0225
8 | Cn1cnc2c(F)c(Nc3ccc(Br)cc3Cl)c(C(=O)NOCCO)cc21 [Selumetinib] + CC(C)n1c(=O)n(C)c2cnc3cc(F)c(-c4ccc(OCCCN5CCCCC5)nc4)cc3c21 [AZD1390] (first compound max 10 µM, 7x7, partner max 0.3 µM) | 0.347 | 0.976 | 0.787 | 0.163 | 0.305 | 0.641 | 0.126 | 0.119 | 0.26 | 0.176 | 0.325 | 0.117 | 0.235 | 0.384 | 0.129 | 0.0763 | 0.44 | 0.364 | 0.0259 | -0.0594
9 | Cc1c2c(nn1C)CSCc1cc(n(C)n1)CSc1cc(c3ccccc3c1)OCCCc1c(C(=O)O)n(C)c3c-2c(Cl)ccc13 [AZD5991] + Cc1cc2ncnn2cc1Nc1ncc2c(n1)n(C1CCOCC1)c(=O)n2C [AZD7648] (first compound max 1 µM, 7x7, partner max 10 µM) | 1 | 0.74 | 0.859 | 0.127 | 0.246 | 0.3 | 0.255 | 0.262 | 1 | 0.25 | 0.385 | 0.329 | 0.629 | 0.599 | 0.221 | 0.268 | 0.214 | 1 | 0.339 | -0.035
10 | COc1cccc(OCCCN)c1-c1cc(Nc2cnc(C#N)cn2)n[nH]1 [Prexasertib] + Cc1cc2ncnn2cc1Nc1ncc2c(n1)n(C1CCOCC1)c(=O)n2C [AZD7648] (first compound max 1 µM, 7x7, partner max 10 µM) | 0.962 | 0.945 | 0.823 | 0.528 | 0.935 | 0.602 | 0.777 | 0.725 | 0.956 | 0.549 | 0.738 | 0.672 | 0.349 | 0.694 | 0.763 | 0.584 | 1 | 0.986 | 0.995 | -0.0019
11 | COc1cccc2c1C(=O)c1c(O)c3c(c(O)c1C2=O)C[C@@](O)(C(=O)CO)C[C@@H]3O[C@H]1C[C@H](N)[C@H](O)[C@H](C)O1 [Doxorubicin] + Cc1cc2ncnn2cc1Nc1ncc2c(n1)n(C1CCOCC1)c(=O)n2C [AZD7648] (first compound max 1 µM, 7x7, partner max 10 µM) | 0.941 | 0.911 | 0.935 | 0.203 | 0.913 | 0.486 | 0.451 | 0.836 | 0.971 | 0.329 | 0.773 | 0.441 | 0.437 | 0.736 | 0.758 | 0.801 | 0.831 | 0.973 | 0.973 | 0.0145
